Measurements published in patent US20020172694A1, “Extended release formulation of diltiazem hydrochloride” (DOV Pharmaceutical, Inc., priority 2001, published 2002).
Structures can show the parent of a compound that is named as a salt.

Assays:
angina pectoris = settings: cited from earlier work
[1] = in vivo; cited from earlier work
[2] = single oral dose, healthy individual, FIG. 6
Description: One hundred twenty milligrams (120 mg) of diltiazem hydrochloride powder were combined with a 360 mg dose of DILTIAZEM OD ER. […] Consequently, this mixture contained approximately 25 percent by weight of a quick release preparation of diltiazem, and approximately 75 percent by weight of a slow release preparation of diltiazem, based upon the percentage of diltiazem in the final mixture.
The resulting mixture was then encapsulated in a larger gelatin capsule and orally administered to a healthy individual, taking no medications which would affect diltiazem plasma levels or interfere with their proper determination. Controls containing either 120 mg diltiazem hydrochloride or 360 mg Diltiazem ER were administered separately. An interval of approximately 5-7 days elapsed between the administration of each agent tested in this example.
An intravenous blood sample was withdrawn into pre-cooled, commercially available [sequence] (TM) containing EDTA (ethylenediamine tetraacetic acid) as an anticoagulant Just before administration of the test agent; this sample represented the zero time sample. The blood sample was centrifuged for 15 minutes under conditions known to those skilled in the art. […] The plasma levels of diltiazem were determined by HPLC (High Performance Liquid Chromatography) analysis according to the method of Eradiri (36).

Structure (SMILES) | incidence of side effects versus other calcium channel blockers (angina pectoris; comparative studies) | efficacy versus beta-adrenergic receptor blockers, nitrates and verapamil (angina pectoris; in vivo) | efficacy versus nifedipine (angina pectoris; in vivo) | plasma half-life [1] | time after administration by which most of the preparation is gone [2] | time to peak plasma levels of diltiazem after administration [2]
COc1ccc([C@@H]2Sc3ccccc3N(CCN(C)C)C(=O)[C@@H]2OC(C)=O)cc1 [diltiazem, 25-cis-3-(Acetoxyl)-5-[2-(dimethylamino)ethyl]-2-3-dihydro-2-(4-methoxyphenyl)-1,5-benzothiazepin-4(5H)-one] | lower incidence of side effects | equivalent | more effective | 2 to 6 h |  | 
COc1ccc([C@@H]2Sc3ccccc3N(CCN(C)C)C(=O)[C@@H]2OC(C)=O)cc1 [diltiazem hydrochloride] |  |  |  |  | 5 to 6 h | 1 to 2 h
